Test results taken from patent publication US20130109682A1, “CYCLIC ETHER COMPOUNDS USEFUL AS KINASE INHIBITORS” (NOVARTIS AG, priority 2010, published 2013).

How the values were obtained:
PIM2 = PIM2 (Homo sapiens, UniProt Q9P1W9); test: KinaseGlo Pim2 ATP depletion assay; assay type: biochemical
Outline: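 Luminescent ATP-depletion read-out of PIM2 phosphorylating BAD peptide (RSRHSSYPAGT-OH). Final conditions: 5 nM PIM2, 4 μM ATP, 10 μM peptide, 2.5% DMSO in 50 mM HEPES pH 7.5, 5 mM MgCl2, 1 mM DTT, 0.05% BSA. Enzyme–peptide preincubated 15 min with compound; reaction run to ~50% ATP depletion.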

PIM1 = PIM1 (Homo sapiens, UniProt P11309); test: KinaseGlo Pim1 ATP depletion assay; assay type: biochemical
Sequence of PIM1 (P11309 whole entry): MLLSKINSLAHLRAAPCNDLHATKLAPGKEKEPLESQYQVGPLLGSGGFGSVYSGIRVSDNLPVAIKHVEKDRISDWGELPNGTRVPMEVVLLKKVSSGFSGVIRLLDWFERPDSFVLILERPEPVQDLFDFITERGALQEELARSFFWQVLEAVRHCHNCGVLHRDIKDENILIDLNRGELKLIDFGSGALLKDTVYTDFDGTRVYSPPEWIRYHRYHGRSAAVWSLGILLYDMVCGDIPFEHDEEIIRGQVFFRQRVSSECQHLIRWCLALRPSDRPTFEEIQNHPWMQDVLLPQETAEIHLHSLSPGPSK
Outline: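 2.5 nM PIM1 preincubated 15 min with compound and 40 μM BAD peptide in 50 mM HEPES pH 7.5, 5 mM MgCl2, 1 mM DTT, 0.05% BSA, 2.5% DMSO. The reaction was started with 20 μM ATP (final) and run to about 50% ATP depletion. Remaining ATP read by KinaseGlo Plus luminescence to give IC50.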

GSK3β = GSK3β (Homo sapiens, UniProt P49841); test: GSK3β ATP depletion assay; assay type: biochemical; details: read-out: GSK3b IC50
Sequence of GSK3β (P49841 whole entry, species assumed): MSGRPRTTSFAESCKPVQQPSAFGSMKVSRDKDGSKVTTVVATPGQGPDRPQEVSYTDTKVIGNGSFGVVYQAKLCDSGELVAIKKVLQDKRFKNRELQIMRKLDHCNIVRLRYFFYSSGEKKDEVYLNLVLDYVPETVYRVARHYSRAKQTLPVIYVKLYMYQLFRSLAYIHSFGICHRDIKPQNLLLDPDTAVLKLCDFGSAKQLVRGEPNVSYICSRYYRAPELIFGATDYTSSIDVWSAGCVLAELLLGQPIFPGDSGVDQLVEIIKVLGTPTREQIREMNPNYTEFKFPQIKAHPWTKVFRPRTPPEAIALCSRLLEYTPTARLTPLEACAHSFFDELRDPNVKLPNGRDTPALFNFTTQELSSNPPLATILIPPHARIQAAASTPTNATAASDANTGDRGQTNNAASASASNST
Outline: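 Human GSK3β (5 nM) preincubated 15 min with 10 μM biotinylated phospho-CREB peptide in pH 7.5 Tris buffer (15 mM MgCl2, 1 mM DTT, 0.1% BSA, 2.5% DMSO). Reaction started with 2 μM ATP and run to about 50% ATP depletion. Remaining ATP measured by KinaseGlo luminescence.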

[1] = system: KMS11 (human myeloma cell line); test: Cell proliferation assay (CellTiter-Glo), KMS11; assay type: cell-based; details: Homo sapiens, KMS-11; KMS11-Luc cells
Outline: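 KMS11 cells in IMDM with 10% FBS and sodium pyruvate, seeded at 2000 cells/well on assay day. Compound added at 2× to equal volume of cells, incubated 3 days at 37° C. Viability read by CellTiter-Glo luminescence; EC50 derived.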

PIM3 = PIM3 (Homo sapiens, UniProt Q86V86); test: KinaseGlo Pim3 ATP depletion assay; assay type: biochemical
Outline: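 Kinase was preincubated 15 min with BAD peptide in HEPES pH 7.5/MgCl2/DTT/BSA before ATP was added. Final concentrations were 40 μM ATP, 100 μM BAD peptide and 2.5% DMSO, with 5 nM enzyme. The reaction ran to ~50% ATP depletion and remaining ATP was read by KinaseGlo Plus luminescence.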

Sequence of PIM2 (Q9P1W9 whole entry): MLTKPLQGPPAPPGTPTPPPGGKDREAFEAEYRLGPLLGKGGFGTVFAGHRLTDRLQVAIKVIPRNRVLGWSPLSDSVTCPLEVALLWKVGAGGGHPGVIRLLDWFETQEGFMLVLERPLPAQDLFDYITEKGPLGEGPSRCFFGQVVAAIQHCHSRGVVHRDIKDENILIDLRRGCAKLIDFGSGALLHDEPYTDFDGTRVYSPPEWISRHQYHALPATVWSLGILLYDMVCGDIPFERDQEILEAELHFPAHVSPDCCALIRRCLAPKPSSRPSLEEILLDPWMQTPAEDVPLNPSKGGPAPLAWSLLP

| SMILES | IC50 (PIM2) [nM] | IC50 (PIM1) [nM] | IC50 (GSK3β) [nM] | EC50 [1] [nM] | IC50 (PIM3) [nM] |
| --- | --- | --- | --- | --- | --- |
| C=C1[C@@H](O)C[C@@H](c2ccncc2NC(=O)c2ccc(F)c(-c3c(F)cccc3F)n2)OC12CC2 [Example 7, 6-(2,6-difluorophenyl)-5-fluoro-N-(4-((5S,7S)-7-hydroxy-8-methylene-4-oxaspiro[2.5]octan-5-yl)pyridin-3-yl)picolinamide] | 151 | 8 | 879 | > 10000 | 17 |
| C[C@H]1[C@H](O)C[C@H](c2ccncc2NC(=O)c2csc(-c3c(F)cccc3F)n2)O[C@@H]1C (stereo in doubt) [Example 95, 2-(2,6-difluorophenyl)-N-(4-((2R,4R,5S,6R)-4-hydroxy-5,6-dimethyltetrahydro-2H-pyran-2-yl)pyridin-3-yl)thiazole-4-carboxamide] | 2170 | 8 | 32 | > 10000 | 80 |
| O=C(Nc1cnccc1[C@@H]1OCC[C@H](CO)O1)c1csc(-c2c(F)cccc2F)n1 [Example 99, 2-(2,6-difluorophenyl)-N-(4-((2R,4R)-4-(hydroxymethyl)-1,3-dioxan-2-yl)pyridin-3-yl)thiazole-4-carboxamide] | 3380 | 14 | 3170 | > 10000 | 75 |
| C[C@H]1[C@H](C)O[C@H](c2ccncc2NC(=O)c2csc(-c3c(F)cccc3F)n2)C[C@@H]1O (stereo in doubt) [Example 94, 2-(2,6-difluorophenyl)-N-(4-((2S,4S,5R,6S)-4-hydroxy-5,6-dimethyltetrahydro-2H-pyran-2-yl)pyridin-3-yl)thiazole-4-carboxamide] | 246 | 1 | 11 | 4200 | 9 |
| O=C(Nc1cnccc1[C@H]1C[C@@H](O)CCO1)c1csc(-c2c(F)cccc2F)n1 [Example 131, 2-(2,6-difluorophenyl)-N-(4-((2R,4S)-4-hydroxytetrahydro-2H-pyran-2-yl)pyridin-3-yl)thiazole-4-carboxamide] | 1110 | 3 | 216 | > 10000 | 22 |
| C[C@H]1[C@H](C)O[C@H](c2ccncc2NC(=O)c2ccc(F)c(-c3c(F)cccc3F)n2)C[C@@H]1O (stereo in doubt) [Example 96, 6-(2,6-difluorophenyl)-5-fluoro-N-(4-((2S,4S,5R,6S)-4-hydroxy-5,6-dimethyltetrahydro-2H-pyran-2-yl)pyridin-3-yl)picolinamide] | 16 | 1 | 141 | 3900 | 3 |
| C[C@H]1O[C@@H](c2ccncc2NC(=O)c2cccc(-c3ccccc3F)n2)C[C@@H](O)[C@]1(C)O [Example 92, N-(4-((2R,4R,5S,6R)-4,5-dihydroxy-5,6-dimethyltetrahydro-2H-pyran-2-yl)pyridin-3-yl)-6-(2-fluorophenyl)picolinamide] | 16 | 1 | 125 | > 10000 | 2 |
| C[C@@H]1O[C@H](c2ccncc2NC(=O)c2csc(-c3c(F)cccc3F)n2)[C@@H](F)[C@H](O)[C@@]1(C)O (stereo in doubt) [Example 70, 2-(2,6-difluorophenyl)-N-(4-((2R,3S,4R,5R,6S)-3-fluoro-4,5-dihydroxy-5,6-dimethyltetrahydro-2H-pyran-2-yl)pyridin-3-yl)thiazole-4-carboxamide] | 323 | 1 | 331 | > 10000 | 19 |

More lines, now with the values ahead:

| IC50 (PIM2) [nM] | IC50 (PIM1) [nM] | IC50 (GSK3β) [nM] | EC50 [1] [nM] | IC50 (PIM3) [nM] | SMILES |
| --- | --- | --- | --- | --- | --- |
| > 25000 | 5850 | > 25000 | > 10000 | 7570 | CC[C@H]1O[C@@H](c2ccncc2NC(=O)c2cccn(-c3ccccc3)c2=O)C[C@@H](O)[C@@H]1O [Example 193, N-(4-((2R,4R,5S,6R)-6-ethyl-4,5-dihydroxytetrahydro-2H-pyran-2-yl)pyridin-3-yl)-2-oxo-1-phenyl-1,2-dihydropyridine-3-carboxamide] |
| > 25000 | 1780 | 1080 | > 10000 | 2370 | O=C(Nc1cnccc1[C@@H]1C[C@H](O)[C@]2(O)CCCC[C@@H]2O1)c1ccnn(-c2ccccc2F)c1=O [Example 191, N-(4-((2S,4S,4aR,8aS)-4,4a-dihydroxyoctahydro-2H-chromen-2-yl)pyridin-3-yl)-2-(2-fluorophenyl)-3-oxo-2,3-dihydropyridazine-4-carboxamide] |
| 508 | 17.9 | 11500 | 3360 | 155 | N[C@H]1C[C@@H](c2ccncc2NC(=O)c2ccc(F)c(-c3c(F)cccc3F)n2)O[C@H]2CCC[C@]21O [Example 212, N-(4-((2S,4S,4aR,7aS)-4-amino-4a-hydroxyoctahydrocyclopenta[b]pyran-2-yl)pyridin-3-yl)-6-(2,6-difluorophenyl)-5-fluoropicolinamide] |
| 27 | 24 | 235 | > 10000 | 14 | N#CC[C@H]1O[C@@H](c2ccncc2NC(=O)c2nc(-c3c(F)cccc3F)ncc2N)C[C@@H](O)[C@@H]1O [Example 138, 5-amino-N-(4-((2R,4R,5S,6R)-6-(cyanomethyl)-4,5-dihydroxytetrahydro-2H-pyran-2-yl)pyridin-3-yl)-2-(2,6-difluorophenyl)pyrimidine-4-carboxamide] |
| 363 | 18 | 165 | > 10000 | 13 | C[C@H]1O[C@@H](c2ccncc2NC(=O)c2csc(-c3c(F)cccc3F)n2)C[C@@H](O)[C@@H]1O (stereo in doubt) [Example 136, 2-(2,6-difluorophenyl)-N-(4-((2R,4R,5S,6R)-4,5-dihydroxy-6-methyltetrahydro-2H-pyran-2-yl)pyridin-3-yl)thiazole-4-carboxamide] |
| 9.3 | 14.4 | 1660 | > 10000 | 13.2 | CCC[C@H]1O[C@@H](c2ccncc2NC(=O)c2nc(-c3c(F)cccc3F)ncc2N)C[C@@H](O)[C@@H]1O [Example 169, 5-amino-2-(2,6-difluorophenyl)-N-(4-((2R,4R,5S,6R)-4,5-dihydroxy-6-propyltetrahydro-2H-pyran-2-yl)pyridin-3-yl)pyrimidine-4-carboxamide] |
| 10.6 | 8.4 | 101 | > 10000 | 7.2 | Nc1cnc(-c2c(F)cccc2F)nc1C(=O)Nc1cnccc1[C@H]1C[C@@H](O)[C@@]2(O)CCC[C@H]2O1 [Example 180, 5-amino-2-(2,6-difluorophenyl)-N-(4-((2R,4R,4aS,7aR)-4,4a-dihydroxyoctahydrocyclopenta[b]pyran-2-yl)pyridin-3-yl)pyrimidine-4-carboxamide] |
| 3080 | 259 | 2690 | > 10000 | 132 | CC[C@]1(O)[C@H](O)C[C@H](c2ccncc2NC(=O)c2c[nH]cc(-c3ccccc3)c2=O)O[C@@H]1C [Example 179, N-(4-((2R,4R,5S,6R)-5-ethyl-4,5-dihydroxy-6-methyltetrahydro-2H-pyran-2-yl)pyridin-3-yl)-4-oxo-5-phenyl-1,4-dihydropyridine-3-carboxamide] |
